Assay [1] concerns RNA 1 (RNA, riboswitch) GGCUGCUUGUCCUUUAAUGGUCCAGUC
As to the kind of experiment: native ESI MS. The settings on record: 9:1 H2O/CH3OH, 0.25 mM piperazine.

For assay [2] the test system is unchanged. As to the kind of experiment: ITC. The settings on record: K+ 100 mM (KCl), Mg2+ 2 mM (MgCl2); 50 mM MOPS, pH 7.5, 21 °C; two-site fit, site 1 of 2.
The subject of assay [3] is RNA 2 (RNA, riboswitch) CCGGCAUAGCUUGUCCUUUAAUGGUCCUAUGUCGAAAAUG
Briefly: ITC. The settings on record: K+ 100 mM (KCl), Mg2+ 2 mM (MgCl2); 50 mM MOPS, pH 7.5, 21 °C; two-site fit, site 1 of 2.

The test system is the same in assay [4]. As to the kind of experiment: competitive native ESI MS. The settings on record: NH4+ 50 mM (ammonium bicarbonate); 9:1 H2O/CH3OH, 0.25 mM piperazine, pH ~7.5, 21 °C; RNA 1 as competing reference; overall, motifs A and B.
In assay [5] the test system is RNA 3 (RNA, riboswitch) CCGUCAUAGCUUGUCCUUUAAUGGUCCUAUGACGAAAAUG
As to the kind of experiment: competitive native ESI MS. The settings on record: NH4+ 50 mM (ammonium bicarbonate); 9:1 H2O/CH3OH, 0.25 mM piperazine, pH ~7.5, 21 °C; RNA 1 as competing reference; overall, motifs A and B.

The test system of assay [6] is RNA 4 (RNA, riboswitch) CCCUGAUAGCUUGUCCUUUAAUGGUCCUAUCUGGAAAAUG
As to the kind of experiment: competitive native ESI MS. The settings on record: NH4+ 50 mM (ammonium bicarbonate); 9:1 H2O/CH3OH, 0.25 mM piperazine, pH ~7.5, 21 °C; RNA 1 as competing reference; overall, motifs A and B.

Regarding `NC[C@@H]1O[C@H](O[C@H]2[C@@H](O)[C@H](O[C@@H]3[C@@H](O)[C@H](N)C[C@H](N)[C@H]3O[C@H]3O[C@H](CO)[C@@H](O)[C@H](O)[C@H]3N)O[C@@H]2CO)[C@H](N)[C@@H](O)[C@@H]1O`, in assay [1] (none added, pH ~6, room temperature, 1 μM RNA, 10 μM paromomycin), the KD (commonly the constant that tells how readily two partners part at equilibrium) was determined as 4.6 ± 1.4 µM.

As to `NC[C@@H]1O[C@H](O[C@H]2[C@@H](O)[C@H](O[C@@H]3[C@@H](O)[C@H](N)C[C@H](N)[C@H]3O[C@H]3O[C@H](CN)[C@@H](O)[C@H](O)[C@H]3N)O[C@@H]2CO)[C@H](N)[C@@H](O)[C@@H]1O`, the KD in assay [2] came out at 0.002 ± 0.002 µM; in assay [3] it was 0.4 ± 0.6 µM; in assay [1] (NH4+ 50 mM (ammonium bicarbonate), pH 7.5, 21 °C, single-site model), 0.7 ± 0.2 µM; in assay [4], 0.5 ± 0.2 µM; in assay [5], 0.5 ± 0.2 µM; in assay [6], 0.5 ± 0.2 µM.

Values taken from paper PMC10360057 (2023).
